Source: patent US12528790B2, “Amide derivative having antiviral activity” (Shionogi & Co., Ltd., priority 2020, dated 2026)
pEC50: −log10 of the molar value. Read-outs that look alike come from different tables or passages of the source.

Experiments:
RSV A2 strain = test: In vitro CPE (CytoPathic Effect) inhibition effect evaluation test, RSV type A; format: cell-based
Procedure, shortened: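 HEp-2 cells (2.4×10^5 cells/mL, 2% FBS E-MEM) were infected with RSV alongside 3-fold compound dilutions and incubated at 37 °C, 4 days for A2 and 5 days for B Wash/18537. Viable cells quantified by CellTiter-Glo 2.0 luminescence; EC50 by nonlinear regression as 50% CPE inhibition.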

[1] = test system: RSV B (Wash/18537 strain); test: In vitro CPE (CytoPathic Effect) inhibition effect evaluation test, RSV type B; format: cell-based
Description: The test sample is diluted in advance to an appropriate concentration with DMSO, and 3-fold series of serial dilutions were prepared on a 384-well plate (0.32 μL/well). HEp-2 cells (CCL-23; ATCC) adjusted at appropriate number (2.4×10^5 cells/mL) in 2% FBS E-MEM (prepared by adding kanamycin and FBS to Eagle's Minimum Essential Medium; Invitrogen) were added at 12.5 μL/well to the 384-well plate previously aliquoted with the test samples. The RSV A2 strain was diluted to an appropriate concentration in a culture medium and added to the 384-well plate containing the test sample at 12.5 μL/well. The culture medium was added additionally to the 384-well plate, and the test was started with 50 μL/well. Control wells were prepared with only virus-free culture medium. The plate was incubated in a 5% CO2 incubator at 37° C. for 4 days, and the plate was then placed at room temperature for 30 minutes. CellTiter-Glo (registered trademark) 2.0 assay (Promega) was added at 15 μL/well, mixed for 30 seconds, and the plate was placed for approximately 1 hour. The luminescent signal was then measured by EnVision (PerkinElmer). The inhibitory effect of the test agents on RSV-induced CPE was calculated as 0% and 100% inhibition rate for each sample concentration based on the level of remaining viable cells by CellTiter-Glo (registered trademark) 2.0, with the EC50 value for each compound calculated by nonlinear regression as the concentration that inhibits RSV-induced CPE by 50%. In the case of evaluation against RSV type B, RSV B (Wash/18537 strain) was infected in the same manner as the type A, cultured for 5 days, and quantitated in the same manner as for the A2 strain.

[2] = human respiratory syncytial virus, HEp-2, 96 h, read-out: EC50, inhibitory effect against RSV type A (CPE inhibition)
[3] = human respiratory syncytial virus, HEp-2, 120 h, HEp-2 cells, RSV B (Wash/18537 strain), 5 days, CellTiter-Glo, read-out: EC50, inhibitory effect against RSV type B (CPE inhibition)
[4] = human respiratory syncytial virus, inhibitory effect against RSV type A (RSV A2 strain), HEp-2 cells, CPE inhibition, read-out: EC50
[5] = human respiratory syncytial virus, inhibitory effect against RSV type B, CPE inhibition, read-out: EC50
[6] = inhibitory effect against RSV type A (RSV A2 strain), HEp-2 cells, CPE inhibition, read-out: EC50
[7] = inhibitory effect against RSV type B, CPE inhibition, read-out: EC50

SMILES | pEC50 (RSV A2 strain; [4]) | pEC50 [1, 5] | also measured
O=C(NC1(C(=O)O)CCCCC1)c1ccc(N2CCc3cc(OCCC4CCOCC4)ccc32)nc1C(F)(F)F [Compound I-33] | – | – | pEC50 (RSV A2 strain; [2]): 8.12; pEC50 [1, 3]: 6.96
O=C(NC1(C(=O)O)CCCCC1)c1cnc(N2CCc3cc(OC4CCN(c5ncccn5)CC4)ccc32)nc1C(F)(F)F [Compound I-36] | > 8.00 | 7.00 to 8.00 | –
O=C(NC1(C(=O)O)C2CC3CC(C2)CC1C3)c1cnc(N2CCc3cc(OC4CCN(c5ncccn5)CC4)ccc32)nc1C(F)(F)F (stereo not drawn) [Compound I-45] | – | – | pEC50 (RSV A2 strain; [6]): > 8.00; pEC50 [1, 7]: > 8.00
O=C(NC1(C(=O)O)CCCCC1)c1cnc(N2CC3(CCOCC3)c3cc(OCCC4CCOCC4)ccc32)nc1C(F)(F)F [Compound I-56] | > 8.00 | 7.00 to 8.00 | –
Cc1nc(N2CCc3cc(OCCC4CCOCC4)ccc32)nc(C(F)(F)F)c1C(=O)NC1(C(=O)O)CCCCC1 [Compound I-72] | > 8.00 | 5.30 to 7.00 | –
COc1ccc2c(c1)C1(CCOCC1)CN2c1ncc(C(=O)NC2(C(=O)O)C3CC4CC(C3)CC2C4)c(C(F)(F)F)n1 (stereo not drawn) [Compound I-80] | – | – | pEC50 (RSV A2 strain; [6]): > 8.00; pEC50 [1, 7]: > 8.00
O=C(NC1(C(=O)O)CCCCC1)c1cnc(N2CC3(CCOCC3)c3cc(OC4CCN(c5ncccn5)CC4)ccc32)nc1C(F)(F)F [Compound I-81] | > 8.00 | > 8.00 | –
O=C(NC1(C(=O)O)C2CC3CC(C2)CC1C3)c1cnc(N2CC3(CCOCC3)c3cc(OC4CCN(c5ncccn5)CC4)ccc32)nc1C(F)(F)F (stereo not drawn) [Compound I-82] | – | – | pEC50 (RSV A2 strain; [2]): 9.57; pEC50 [1, 3]: 9.47
O=C(NC1(C(=O)O)C2CC3CC(C2)CC1C3)c1cnc(N2CC3(CCOCC3)c3cc(OCCC4CCOCC4)ccc32)nc1C(F)(F)F (stereo not drawn) [Compound I-83] | – | – | pEC50 (RSV A2 strain; [6]): > 8.00; pEC50 [1, 7]: > 8.00
O=C(NC1(C(=O)O)C2CC3CC(C2)CC1C3)c1cnc(N2CC3(CCOCC3)c3cc(OCCN4CCOCC4)ccc32)nc1C(F)(F)F (stereo not drawn) [Compound I-86] | – | – | pEC50 (RSV A2 strain; [6]): > 8.00; pEC50 [1, 7]: > 8.00
COc1nc(N2CCc3cc(OCCC4CCOCC4)ccc32)nc(C(F)(F)F)c1C(=O)NC1(C(=O)O)C2CC3CC(C2)CC1C3 (stereo not drawn) [Compound I-88] | – | – | pEC50 (RSV A2 strain; [6]): > 8.00; pEC50 [1, 7]: 7.00 to 8.00
COc1ccc2c(n1)C1(CCOCC1)CN2c1ncc(C(=O)NC2(C(=O)O)C3CC4CC(C3)CC2C4)c(C(F)(F)F)n1 (stereo not drawn) [Compound I-91] | – | – | pEC50 (RSV A2 strain; [6]): > 8.00; pEC50 [1, 7]: 7.00 to 8.00
O=C(NC1(C(=O)O)C2CC3CC(C2)CC1C3)c1cnc(N2CC3(CCOCC3)c3cc(OC4CCN(C5CC5)CC4)ccc32)nc1C(F)(F)F (stereo not drawn) [Compound I-92] | – | – | pEC50 (RSV A2 strain; [6]): > 8.00; pEC50 [1, 7]: > 8.00
Cc1ccc2c(c1)C1(CCOCC1)CN2c1ncc(C(=O)NC2(C(=O)O)C3CC4CC(C3)CC2C4)c(C(F)(F)F)n1 (stereo not drawn) [Compound I-109] | – | – | pEC50 (RSV A2 strain; [6]): > 8.00; pEC50 [1, 7]: 7.00 to 8.00
NC(=O)C1(NC(=O)c2cnc(N3CC4(CCOCC4)c4cc(OC5CCN(c6ncccn6)CC5)ccc43)nc2C(F)(F)F)C2CC3CC(C2)CC1C3 (stereo not drawn) [Compound I-135] | > 8.00 | 7.00 to 8.00 | –
O=C(NC1(C(=O)O)C2CC3CC(C2)CC1C3)c1cnc(-c2cn(C3CCOCC3)c3cc(OC4CCN(c5ncccn5)CC4)ccc23)nc1C(F)(F)F (stereo not drawn) [Compound I-146] | > 8.00 | > 8.00 | –
O=C(NC1(C(=O)O)C2CC3CC(C2)CC1C3)c1ccc(-c2cn(C3CCOCC3)c3cc(OC4CCN(c5ncccn5)CC4)ccc23)nc1C(F)(F)F (stereo not drawn) [Compound I-147] | > 8.00 | > 8.00 | –
O=C(NC1(C(=O)O)C2CC3CC(C2)CC1C3)c1ccc(-c2cn(-c3ccccc3)c3cc(OC4CCN(c5ncccn5)CC4)ccc23)nc1C(F)(F)F (stereo not drawn) [Compound I-148] | – | – | pEC50 (RSV A2 strain; [2]): 8.82; pEC50 [1, 3]: 8.55
O=C(NC1(C(=O)O)C2CC3CC(C2)CC1C3)c1ccc(-c2cn(C3COC3)c3cc(OC4CCN(c5ncccn5)CC4)ccc23)nc1C(F)(F)F (stereo not drawn) [Compound I-151] | > 8.00 | > 8.00 | –
O=C(NC1(C(=O)O)C2CC3CC(C2)CC1C3)c1ccc(-c2cn(C(=O)OC3CCOCC3)c3cc(OC4CCN(c5ncccn5)CC4)ccc23)nc1C(F)(F)F (stereo not drawn) [Compound I-152] | > 8.00 | > 8.00 | –

SMILES | pEC50 (RSV A2 strain; [4]) | pEC50 [1, 5] | also measured
O=C(N[C@@]1(C(=O)O)C2CC3C[C@@H]1C[C@](F)(C3)C2)c1cnc(N2CCc3cc(OCCC4CCOCC4)ccc32)nc1C(F)(F)F [Compound I-155] | > 8.00 | 7.00 to 8.00 | –
O=C(NC1(C(=O)O)C2CC3CC(C2)CC1C3)c1ccc(-c2nn(C3CCOCC3)c3cc(OC4CCN(c5ncccn5)CC4)ccc23)nc1C(F)(F)F (stereo not drawn) [Compound I-158] | > 8.00 | > 8.00 | –
O=C(NC1(C(=O)O)C2CC3CC(C2)CC1C3)c1cnc(-c2nn(C3CCOCC3)c3cc(OC4CCN(c5ncccn5)CC4)ccc23)nc1C(F)(F)F (stereo not drawn) [Compound I-159] | – | – | pEC50 (RSV A2 strain; [2]): 9.06; pEC50 [1, 3]: 8.52
CN(C)CCCc1nc(N2CCc3cc(OCCC4CCOCC4)ccc32)nc(C(F)(F)F)c1C(=O)NC1(C(=O)O)C2CC3CC(C2)CC1C3 (stereo not drawn) [Compound I-160] | 7.00 to 8.00 | 5.30 to 7.00 | –
O=C(NC1(C(=O)O)C2CC3CC(C2)CC1C3)c1ccc(-c2cn(C3CCC(F)(F)CC3)c3cc(OC4CCN(c5ncccn5)CC4)ccc23)nc1C(F)(F)F (stereo not drawn) [Compound I-162] | – | – | pEC50 (RSV A2 strain; [2]): 9.06; pEC50 [1, 3]: 8.48
O=C(N[C@]1(C(=O)O)[C@@H]2CC3C[C@H]1C[C@@](F)(C3)C2)c1cnc(N2CC3(CCOCC3)c3cc(OC4CCN(c5ncccn5)CC4)ccc32)nc1C(F)(F)F [Compound I-165] | – | – | pEC50 (RSV A2 strain; [2]): 9.43; pEC50 [1, 3]: 9.21
O=C(NC1(C(=O)O)C2CC3CC(C2)CC1C3)c1ccc(-c2cn(-c3ccccn3)c3cc(OC4CCN(c5ncccn5)CC4)ccc23)nc1C(F)(F)F (stereo not drawn) [Compound I-175] | > 8.00 | > 8.00 | –
O=C(NC1(C(=O)O)C2CC3CC(C2)CC1C3)c1ccc(-c2cn(-c3ccncc3)c3cc(OC4CCN(c5ncccn5)CC4)ccc23)nc1C(F)(F)F (stereo not drawn) [Compound I-176] | > 8.00 | > 8.00 | –
O=C(NC1(C(=O)O)C2CC3CC(C2)CC1C3)c1ccc(-c2cn(-c3cccnc3)c3cc(OC4CCN(c5ncccn5)CC4)ccc23)nc1C(F)(F)F (stereo not drawn) [Compound I-177] | > 8.00 | > 8.00 | –
O=C(NC1(C(=O)O)C2CC3CC(C2)CC1C3)c1cnc(-c2c3ccc(OC4CCN(c5ncccn5)CC4)cc3nn2C2CCOCC2)nc1C(F)(F)F (stereo not drawn) [Compound I-182] | – | – | pEC50 (RSV A2 strain; [2]): 9.41; pEC50 [1, 3]: 8.68
CN(C)CCCc1nc(N2CC3(CCOCC3)c3cc(OC4CCN(c5ncccn5)CC4)ccc32)nc(C(F)(F)F)c1C(=O)NC1(C(=O)O)C2CC3CC(C2)CC1C3 (stereo not drawn) [Compound I-183] | > 8.00 | 7.00 to 8.00 | –
O=C(NC1(C(=O)O)C2CC3CC(C2)CC1C3)c1cnc(N2CC3(CCOCC3)c3cc(OC4CCN(C5COC5)CC4)ccc32)nc1C(F)(F)F (stereo not drawn) [Compound I-184] | > 8.00 | > 8.00 | –
O=C(NC1(C(=O)O)C2CC3CC(C2)CC1C3)c1cnc(N2CC3(CCOCC3)c3cc(O[C@H]4CC[C@H](n5cccn5)CC4)ccc32)nc1C(F)(F)F (stereo partly drawn) [Compound I-193] | > 8.00 | > 8.00 | –
O=C(NC1(C(=O)O)C2CC3CC(C2)CC1C3)c1cnc(N2CC3(CCOCC3)c3cc(OC4CCS(=O)(=O)CC4)ccc32)nc1C(F)(F)F (stereo not drawn) [Compound I-203] | > 8.00 | > 8.00 | –
CN1CCN(CCOc2ccc3c(c2)C2(CCOCC2)CN3c2ncc(C(=O)NC3(C(=O)O)C4CC5CC(C4)CC3C5)c(C(F)(F)F)n2)CC1 (stereo not drawn) [Compound I-204] | > 8.00 | 7.00 to 8.00 | –
O=C(NC1(C(=O)O)C2CC3CC(C2)CC1C3)c1cnc(N2CC3(CCCCC3)c3cc(OC4CCN(c5ncccn5)CC4)ccc32)nc1C(F)(F)F (stereo not drawn) [Compound I-214] | > 8.00 | > 8.00 | –
N#C[C@]12CC3C[C@H](C1)[C@](NC(=O)c1cnc(N4CC5(CCOCC5)c5cc(OC6CCN(c7ncccn7)CC6)ccc54)nc1C(F)(F)F)(C(=O)O)[C@@H](C3)C2 [Compound I-218] | > 8.00 | > 8.00 | –
O=C(NC1(C(=O)O)C2CC3CC(C2)CC1C3)c1ccc(-c2cn(C3CCC(F)(F)CC3)c3cc(OC4CCN(c5ncccn5)CC4)c(F)cc23)nc1C(F)(F)F (stereo not drawn) [Compound I-221] | > 8.00 | 5.30 to 7.00 | –
O=C(NC1(C(=O)O)C2CC3CC(C2)CC1C3)c1ccc(-c2cn(C3CCC(F)(F)CC3)c3c(F)c(OC4CCN(c5ncccn5)CC4)ccc23)nc1C(F)(F)F (stereo not drawn) [Compound I-227] | > 8.00 | > 8.00 | –
